Results taken from patent US20250281462A1, “THERAPEUTICALLY EFFECTIVE ORAL ADMINISTRATION OF A 2 ARYLBENZIMIDAZOLE” (Tranquis Therapeutics, Inc., priority 2021, published 2025).
Several values for one entry are separate records, joined by “and”; a condition that tells them apart may be missing. Equal values may be shown once.

Columns and labels:
[1] = Plasma and brain concentrations after single oral dose 45 mg/kg in mice; format: in vivo; conditions: TQS-168 45 mg/kg p.o.
Procedure: Mice were administered a single oral dose of 45 mg/kg TQS-168. TQS-168 was prepared at a concentration of 5.0 mg/mL as a solution in 10% polyethylene glycol (PEG) 400|130% Kleptose (Roquette) 60% water.
Concentrations in plasma and in brain were measured at various timepoints and various pharmacokinetic parameters were calculated, as shown below in Tables 4 and 5 and in FIGS. 19A and 19B.
TQS-168 was prepared as a 4.5 mg/ml solution in PEG400 10%| Kleptose 30% sterile water 60%. A single oral dose of 45 mg/kg was administered. Concentrations of TQS-621 were measured in plasma and brain over time.

[2] = Plasma concentrations of TQS-168 and TQS-621 after single oral dose 50 mg/kg in mice, three formulations; format: in vivo; conditions: mice plasma, TQS-168 50 mg/kg p.o.
Procedure: In a second experiment, mice were administered 50 mg/kg TQS-168 by oral gavage. For Group 1, TQS-168 was prepared at a concentration of 5.0 mg/mL in a suspension with […] in PBS. For Group 2, TQS-168 was prepared at a concentration of 5.0 mg/mL as a solution in 10 polyethylene glycol (PEG) 400|30 Kleptose (Roquete)|60% water.
Plasma exposures for Group 1 mice (ng/mL) are presented in Table 2 and for Group 2 mice in Table 3.
C57BL/6 male mice were administered a single dose of TQS-168 at 50 mg/kg using one of three formulations: Group 1-5.0 mg/ml suspension in 0.5% methylcellulose in PBS; Group 2-5.0 mg/ml solution in PEG400 (Fluka) 10%|Kleptose (Roquette) 30%|sterile water 60%; Group 3-5.0 mg/ml suspension in Labrafil M 1944 CS (Gattefosse) 30%|Masine CC (Gattefosse) 5%|Miglyol 812N 10%|sterile water 55%.
Plasma concentrations of TQS-168 and TQS-621 were measured overtime.

[3] = mouse, po, mice brain, solution PEG 400/Kleptose/water
[4] = mouse, po, mice plasma, solution PEG 400/Kleptose/water
[5] = male, C57BL/6, mouse, plasma, po, 50 mg/kg, Group 1 (suspension, 0.5% methylcellulose in PBS), mean
[6] = male, C57BL/6, mouse, plasma, po, 50 mg/kg, Group 2 (solution, PEG400/Kleptose/water), individual mouse
[7] = male, C57BL/6, mouse, plasma, po, 50 mg/kg, Group 2 (solution, PEG400/Kleptose/water), mean
[8] = male, C57BL/6, mouse, plasma, po, 50 mg/kg, Group 3 (suspension, Labrafil/Masine/Miglyol/water), individual mouse
[9] = male, C57BL/6, mouse, plasma, po, 50 mg/kg, Group 3 (suspension, Labrafil/Masine/Miglyol/water), mean
[10] = Group 1 (suspension, 0.5% methylcellulose in PBS), individual mouse
[11] = Group 2 (solution, PEG400/Kleptose/water), individual mouse
[12] = Group 2 (solution, PEG400/Kleptose/water), mean
[13] = Group 3 (suspension, Labrafil/Masine/Miglyol/water), individual mouse

Question: What does the source list for `CC(C)(C)c1ccc(-c2nc3cc(O)ccc3[nH]2)cc1` [TQS-621]?
Answer: AUClast Ratio (Metabolites/Parent) ([1]; mice brain, solution): 0.172; Cmax Ratio (Metabolite/Parent) ([1]; mice brain, solution): 0.159; AUCInf ([1]; mice brain, solution PEG 400/Kleptose/water): 4282 ng·h/g; AUClast ([1]; mice brain, solution PEG 400/Kleptose/water, last time point 24 hr): 4234 ng·h/g; Cmax [1, 3]: 678 ng/g; Tmax [1, 3]: 4 h; half-life [1, 3]: 291 min; AUC(0-inf) [1, 4]: 4310 ng·h/mL; Cmax [1, 4]: 692 ng/mL; Tmax [1, 4]: 4 h; AUC(0-t) ([1]; mouse, po, mice plasma, solution PEG 400/Kleptose/water, last time point 24 hr): 4280 ng·h/mL; Cmax ([2]; male, C57BL/6, mouse, plasma, po, 50 mg/kg, Group 1 (suspension, 0.5% methylcellulose in PBS), individual mouse, read-out: Cmax): 239 ng/mL; Tmax ([2]; male, C57BL/6, mouse, plasma, po, 50 mg/kg, Group 1 (suspension, 0.5% methylcellulose in PBS), individual mouse, read-out: tmax): 1 h; AUC(0-inf) [2, 5]: 8200 ng·h/mL; AUC(0-t) [2, 5]: 1590 ng·h/mL; half-life [2, 5]: 1700 min; Cmax ([2]; male, C57BL/6, mouse, plasma, po, 50 mg/kg, Group 1 (suspension, 0.5% methylcellulose in PBS), mean, read-out: Cmax): 235 ng/mL; Tmax ([2]; male, C57BL/6, mouse, plasma, po, 50 mg/kg, Group 1 (suspension, 0.5% methylcellulose in PBS), mean, read-out: tmax): 1.33 h; AUC(0-inf) [2, 6]: 3110 ng·h/mL; AUC(0-t) [2, 6]: 2880 ng·h/mL; half-life [2, 6]: 175 min; Cmax ([2]; male, C57BL/6, mouse, plasma, po, 50 mg/kg, Group 2 (solution, PEG400/Kleptose/water), individual mouse, read-out: Cmax): 487 ng/mL; Tmax ([2]; male, C57BL/6, mouse, plasma, po, 50 mg/kg, Group 2 (solution, PEG400/Kleptose/water), individual mouse, read-out: tmax): 2 h; AUC(0-inf) [2, 7]: 2960 ng·h/mL; AUC(0-t) [2, 7]: 2750 ng·h/mL; half-life [2, 7]: 174 min; Cmax ([2]; male, C57BL/6, mouse, plasma, po, 50 mg/kg, Group 2 (solution, PEG400/Kleptose/water), mean, read-out: Cmax): 449 ng/mL; Tmax ([2]; male, C57BL/6, mouse, plasma, po, 50 mg/kg, Group 2 (solution, PEG400/Kleptose/water), mean, read-out: tmax): 1.67 h; AUC(0-inf) [2, 8]: 612 ng·h/mL; AUC(0-t) [2, 8]: 564 ng·h/mL; Cmax ([2]; male, C57BL/6, mouse, plasma, po, 50 mg/kg, Group 3 (suspension, Labrafil/Masine/Miglyol/water), individual mouse, read-out: Cmax): 98.9 ng/mL; AUC(0-inf) [2, 9]: 584 ng·h/mL; AUC(0-t) [2, 9]: 533 ng·h/mL; half-life [2, 9]: 155 min; Cmax ([2]; male, C57BL/6, mouse, plasma, po, 50 mg/kg, Group 3 (suspension, Labrafil/Masine/Miglyol/water), mean, read-out: Cmax): 92 ng/mL; Tmax ([2]; male, C57BL/6, mouse, plasma, po, 50 mg/kg, Group 3 (suspension, Labrafil/Masine/Miglyol/water), mean, read-out: tmax): 3.33 h; AUCInf [2, 10]: 1163 ng·h/mL and 22064 ng·h/mL and 1379 ng·h/mL; AUClast [2, 10]: 1148 ng·h/mL and 2355 ng·h/mL and 1267 ng·h/mL; Cmax [2, 10]: 309 ng/mL and 156 ng/mL; t1/2 [2, 10]: 1.88 h and 80.8 h and 2.08 h; AUCInf [2, 11]: 2962 ng·h/mL and 2817 ng·h/mL; AUClast [2, 11]: 2862 ng·h/mL and 2513 ng·h/mL; Cmax [2, 11]: 483 ng/mL and 378 ng/mL; t1/2 [2, 11]: 2.17 h and 3.61 h; AUClast Ratio (Metabolite/Parent) [2, 12]: 0.256; Cmax Ratio (Metabolite/Parent) [2, 12]: 0.211; AUCInf [2, 13]: 621 ng·h/mL and 519 ng·h/mL; AUClast [2, 13]: 532 ng·h/mL and 504 ng·h/mL; Cmax [2, 13]: 117 ng/mL and 58.7 ng/mL; Tmax [2, 13]: 8 h; t1/2 [2, 13]: 3.43 h and 2.93 h and 1.38 h
